Read-outs that look alike come from different tables or passages of the source. *1 amine or outer side, *2 acyl side, *3 side chain or, on linkers, in order; H or OH if unused. Where a SMILES comes first, the peptide text is derived from it. Side-chain parts run from the residue outwards. [ ]: non-standard residue; d: D form. The star is where a group is joined. αMePhe(2-F) = C[C@](N)(Cc1ccccc1F)C(=O)O; γGlu = O=C(O)[C@H](CCC(=O)[*:2])N[*:1]; C14 diacid = O=C(O)CCCCCCCCCCCCC(=O)*; αMeY = C[C@](N)(Cc1ccc(O)cc1)C(=O)O; αMeL = CC(C)C[C@](C)(N)C(=O)O; Orn = NCCC[C@H](N)C(=O)O; AEEA = NCCOCCOCC(=O)O; Aib = CC(C)(N)C(=O)O
Assays:
Type in all cases: cell-based
hGCGR = molecular target: T1, hGCGR (Homo sapiens, UniProt P47871); experiment: Functional cAMP formation (HTRF) in HEK-293 clonal cells expressing hGCGR, 0.1% bovine casein, without or with 1.0% human serum albumin; details: cAMP, 37° C., read-out: hGCGR EC50, nM (SEM, n)
T1 construct: expressed in transfected cells
How it was run: (§1)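 Readings of the HTRF 665/620 nm ratio, which falls as cAMP rises, were converted to nM cAMP using a standard curve after 30 min peptide exposure at 37° C.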

hGLP-1R = hGLP-1R (Homo sapiens, UniProt P43220); experiment: Functional cAMP formation (HTRF) in HEK-293 clonal cells expressing hGLP-1R, 0.1% bovine casein, without or with 1.0% human serum albumin; parameters: expressed in transfected cells; details: 37° C.; for Emax: HEK293, cAMP, percent of maximal response to GLP-1(7-36)NH2, read-out: hGLP-1R Emax, % ± SEM; for EC50: cAMP, read-out: hGLP-1R EC50, nM (SEM, n)
How it was run: as §1

hGIPR = molecular target: T2, hGIPR (Homo sapiens, UniProt P48546); experiment: Functional cAMP formation (HTRF) in HEK-293 clonal cells expressing hGIPR, 0.1% bovine casein, without or with 1.0% human serum albumin; details: 37° C.; for Emax: HEK293, cAMP, percent of maximal response to GIP(1-42)NH2, read-out: hGIPR Emax, % ± SEM; for EC50: cAMP, 0.1% bovine casein (no human serum albumin), geometric mean, read-out: hGIPR EC50, nM (SEM, n)
T2 construct: expressed in transfected cells
T2 sequence (P48546 22-466): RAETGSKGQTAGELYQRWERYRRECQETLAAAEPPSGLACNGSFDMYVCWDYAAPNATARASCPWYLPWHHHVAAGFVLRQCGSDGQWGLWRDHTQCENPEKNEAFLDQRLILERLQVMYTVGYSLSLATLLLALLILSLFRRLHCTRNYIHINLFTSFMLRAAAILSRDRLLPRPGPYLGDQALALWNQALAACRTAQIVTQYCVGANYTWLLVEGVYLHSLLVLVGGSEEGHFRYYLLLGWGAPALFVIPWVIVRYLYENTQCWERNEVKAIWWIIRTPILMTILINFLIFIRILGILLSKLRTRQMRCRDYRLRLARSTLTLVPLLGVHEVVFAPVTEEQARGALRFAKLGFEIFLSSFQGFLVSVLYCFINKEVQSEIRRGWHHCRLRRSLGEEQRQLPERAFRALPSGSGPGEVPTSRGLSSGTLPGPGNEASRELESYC
How it was run: as §1

[1] = 0.1% bovine casein (no human serum albumin), geometric mean
[2] = 0.1% bovine casein and 1.0% human serum albumin, geometric mean (SEM, n)
[3] = 0.1% bovine casein and 1.0% human serum albumin
[4] = 0.1% bovine casein, arithmetic mean

Chain of hGLP-1R (P43220 24-463): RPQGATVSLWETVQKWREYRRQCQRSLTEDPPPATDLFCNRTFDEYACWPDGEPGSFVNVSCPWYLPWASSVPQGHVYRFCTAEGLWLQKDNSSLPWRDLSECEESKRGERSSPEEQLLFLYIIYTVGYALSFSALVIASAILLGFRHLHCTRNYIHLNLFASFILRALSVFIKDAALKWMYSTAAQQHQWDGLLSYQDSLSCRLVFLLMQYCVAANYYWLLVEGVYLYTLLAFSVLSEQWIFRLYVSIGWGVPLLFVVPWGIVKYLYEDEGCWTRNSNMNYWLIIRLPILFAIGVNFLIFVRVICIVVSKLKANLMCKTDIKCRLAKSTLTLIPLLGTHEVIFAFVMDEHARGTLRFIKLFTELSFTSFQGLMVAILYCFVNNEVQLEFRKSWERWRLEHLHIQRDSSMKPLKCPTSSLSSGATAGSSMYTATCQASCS
T1 sequence (P47871 26-477): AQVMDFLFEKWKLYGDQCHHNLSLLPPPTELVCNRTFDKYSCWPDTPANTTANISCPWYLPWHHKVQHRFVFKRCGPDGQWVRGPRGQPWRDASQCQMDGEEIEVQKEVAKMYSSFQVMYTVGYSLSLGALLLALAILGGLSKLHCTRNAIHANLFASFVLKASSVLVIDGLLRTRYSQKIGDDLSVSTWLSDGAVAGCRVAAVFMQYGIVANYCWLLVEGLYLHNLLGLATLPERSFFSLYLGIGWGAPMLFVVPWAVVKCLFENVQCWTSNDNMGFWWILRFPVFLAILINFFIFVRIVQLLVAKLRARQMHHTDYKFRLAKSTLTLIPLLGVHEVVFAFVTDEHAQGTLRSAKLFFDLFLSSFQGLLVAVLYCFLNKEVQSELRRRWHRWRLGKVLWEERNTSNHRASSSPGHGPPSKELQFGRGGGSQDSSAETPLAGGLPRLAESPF

CC[C@H](C)[C@H](NC(=O)[C@H](CC(C)C)NC(=O)[C@](C)(Cc1ccc(O)cc1)NC(=O)[C@@H](CCC(=O)O)NC(=O)[C@@H](NC(=O)[C@H](Cc1ccccc1)NC(=O)[C@H](CCCN)NC(=O)C(C)(C)NC(=O)[C@H](CCC(N)=O)NC(=O)[C@H](C)NC(=O)[C@H](CCCCNC(=O)COCCOCCNC(=O)COCCOCCNC(=O)CC[C@H](NC(=O)CCCCCCCCCCCCC(=O)O)C(=O)O)NC(=O)[C@H](CCCN)NC(=O)[C@H](CC(=O)O)NC(=O)[C@H](CC(C)C)NC(=O)[C@](C)(CC(C)C)NC(=O)[C@@H](NC(=O)C(C)(C)NC(=O)[C@H](Cc1ccncc1)NC(=O)[C@H](CC(=O)O)NC(=O)[C@H](CO)NC(=O)[C@@H](NC(=O)[C@](C)(Cc1ccccc1F)NC(=O)[C@@H](NC(=O)CNC(=O)[C@H](CCC(=O)O)NC(=O)C(C)(C)NC(=O)[C@@H](N)Cc1ccc(O)cc1)[C@@H](C)O)[C@@H](C)O)[C@@H](C)CC)[C@@H](C)CC)C(=O)N[C@@H](CCCCNC(=O)COCCOCCNC(=O)COCCOCCNC(=O)CC[C@H](NC(=O)CCCCCCCCCCCCC(=O)O)C(=O)O)C(=O)NCC(=O)NCC(=O)N1CCC[C@H]1C(=O)N[C@@H](CO)C(=O)N[C@@H](CO)C(=O)NCC(=O)N[C@@H](C)C(=O)N1CCC[C@H]1C(=O)N1CCC[C@H]1C(=O)N1CCC[C@H]1C(=O)N[C@@H](CO)C(N)=O [Example 348]
EC50 (hGCGR; [1]): > 9950 nM
EC50 (hGCGR; [2]): > 9950 nM
Emax (hGLP-1R; [3]): 98%
EC50 (hGLP-1R; [1]): 0.805 nM
EC50 (hGLP-1R; [2]): 8.95 nM
Emax (hGIPR; [3]): 79.3%
Emax (hGIPR; [4]): 95.9%
EC50 (hGIPR): 0.0228 nM

CC[C@H](C)[C@H](NC(=O)[C@H](CC(C)C)NC(=O)[C@](C)(Cc1ccc(O)cc1)NC(=O)[C@@H](CCC(=O)O)NC(=O)[C@@H](NC(=O)[C@H](Cc1ccccc1)NC(=O)[C@H](CCCN)NC(=O)C(C)(C)NC(=O)[C@H](CCC(N)=O)NC(=O)[C@H](C)NC(=O)[C@H](CCCCNC(=O)COCCOCCNC(=O)COCCOCCNC(=O)CC[C@H](NC(=O)CCCCCCCCCCCCC(=O)O)C(=O)O)NC(=O)[C@H](CCCN)NC(=O)[C@H](CC(=O)O)NC(=O)[C@H](CC(C)C)NC(=O)[C@](C)(CC(C)C)NC(=O)[C@@H](NC(=O)C(C)(C)NC(=O)[C@H](Cc1ccc(O)cc1)NC(=O)[C@H](CC(=O)O)NC(=O)[C@H](CO)NC(=O)[C@@H](NC(=O)[C@](C)(Cc1ccccc1F)NC(=O)[C@@H](NC(=O)CNC(=O)[C@H](CCC(=O)O)NC(=O)C(C)(C)NC(=O)[C@@H](N)Cc1ccc(O)cc1)[C@@H](C)O)[C@@H](C)O)[C@@H](C)CC)[C@@H](C)CC)C(=O)N[C@@H](CCCCNC(=O)COCCOCCNC(=O)COCCOCCNC(=O)CC[C@H](NC(=O)CCCCCCCCCCCCC(=O)O)C(=O)O)C(=O)NCC(=O)NCC(=O)N1CCC[C@H]1C(=O)N[C@@H](CO)C(=O)N[C@@H](CO)C(=O)NCC(=O)N[C@@H](C)C(=O)N1CCC[C@H]1C(=O)N1CCC[C@H]1C(=O)N1CCC[C@H]1C(=O)N[C@@H](CO)C(N)=O [Example 349] (H-Y[Aib]EGT[αMePhe(2-F)]TSDY[Aib]I[αMeL]LD[Orn]K([AEEA-AEEA-γGlu-C14 diacid])AQ[Aib][Orn]FI[dE][αMeY]LIK([AEEA-AEEA-γGlu-C14 diacid])GGPSSGAPPPS-NH2; N-terminus assumed)
EC50 (hGCGR; [1]): > 9950 nM
EC50 (hGCGR; [2]): > 9950 nM
Emax (hGLP-1R; [3]): 94.3%
Emax (hGLP-1R; [4]): 99%
EC50 (hGLP-1R; [1]): 0.334 nM
Emax (hGIPR; [3]): 79.3%
Emax (hGIPR; [4]): 95.9%
EC50 (hGIPR): 0.015 nM
